EP1061897B1, “GLYCYLGLYCINE OLEAMIDE IN DERMO-COSMETOLOGY” (Pierre Fabre Dermo-Cosmetique, priority 1998, dated 1999)
Residues, ends and D or L forms follow the SMILES beside them. *: point of attachment. Oleoyl = CCCCCCCC/C=C\CCCCCCCC(=O)*

What was measured:
collagène de type I = experiment: in vitro acellular glycation of type I collagen, thiobarbituric acid assay; assay type: biochemical; conditions: glucose 250 mM, 37°C, 8 days, figure 1
Method: L'activité inhibitrice de la glycylglycine est évaluée et comparée à celle de l'aminoguanidine en utilisant un modèle in vitro, acellulaire, de glycation du collagène de type I, selon le protocole suivant.
L'actif anti-glyquant est introduit dans une solution contenant du glucose 250 mM et du collagène de type I. L'aminoguanidine agit notamment en bloquant le groupement carbonyle du produit d'Amadori, stoppant ainsi la glycation à son stade précoce (M. Brownlee et coll., Science, 1986 (6), 232, 1629-1632).
Le mélange est incubé à 37°C pendant 8 jours puis le glucose non fixé est éliminé par dialyse. Après lyophilisation du collagène, on procède à un dosage à l'acide thiobarbiturique pour déterminer le taux de glycation.
Cette méthode permet le dosage de sucres liés aux cétoamines.
Le lyophilisat, après être pesé, est dissous dans l'acide oxalique 0,5 M. On laisse incuber à 120°C pendant 1 heure, puis à 40°C pendant 45 min après avoir ajouté de l'acide thiobarbiturique à 50 mM.
La densité optique du mélange, lue à 443 nm, est proportionnelle au taux de glycation exprimé en nmoles HMF formé par mg de lyophilisat.

élastase = experiment: in vitro acellular anti-elastase test, elastase diffusion in agarose gel containing orcein-stained insoluble elastin; assay type: biochemical; conditions: figure 2
From the text: La méthode utilisée est une technique in vitro acellulaire, basée sur la diffusion d'élastase dans un gel d'agarose contenant de l'élastine insoluble colorée par l'orcéïne et dispersée dans le gel avec ou sans principe actif. La lecture du diamètre de lyse permet de calculer le pourcentage d'inhibition de l'enzyme par le principe actif.

fibroblastes = experiment: Bell-type dermal equivalent, contraction kinetics of fibroblast-seeded collagen lattice; assay type: cell-based; conditions: followed over 7 days; 0,005 % oléamide de glycylglycine, 0,003 % acide oléique, 0,002 % gly-gly; figure 3
From the text: Pour objectiver cette activité, on utilise le modèle cellulaire de derme équivalent de type Bell. Il permet, grâce à une mise en culture de fibroblastes sur un support de collagène, de reproduire in vitro une structure tissulaire tridimensionnelle et de rendre compte des interactions fibroblaste-matrice, le fibroblaste étant impliqué dans le maintien de la structure dermique.
La capacité des fibroblastes, ensemencés dans un milieu défini avec ou sans actif, à organiser les fibres de collagène les unes par rapport aux autres et de les faire se rétracter, se concrétise par une diminution de surface de ce derme. Ce test traduit la capacité du fibroblaste à modeler, par ce biais, un véritable tissu. On suit donc la cinétique de contraction de ce derme sur 7 jours, cette cinétique étant liée au métabolisme de la cellule.
Les concentrations en actifs employées correspondent à des doses auxquelles ces actifs se sont avérés non cytotoxiques et non prolifératifs.

SMILES	activité anti-glyquante (taux de glycation, nmoles HMF/mg) (collagène de type I; at 100 mM, compared with aminoguanidine)	activité anti-glyquante (taux de glycation, nmoles HMF/mg) (collagène de type I; 1 mM, 10 mM and 100 mM)	activité anti-élastase (aire de lyse) (élastase)	cinétique de rétraction (pourcentage de rétraction) (fibroblastes)
NCC(=O)NCC(=O)O [glycylglycine] (H-Gly-Gly-OH)	activité équivalent à celle de l'aminoguanidine	avec un effet-dose		
CCCCCCCC/C=C\CCCCCCCC(=O)NCC(=O)NCC(=O)O [oléamide de glycylglycine] (Oleoyl-Gly-Gly-OH)			activité anti-élastase importante	plus efficace que l'acide oléique, l'association acide oléique/glycylglycine, la glycylglycine
